Molecules are shown by their SMILES.

Broadly, the IC50 is the concentration that gives 50% inhibition.

In one data set the test system is ARH77 cells. It is filed as cell-based. The following applies: human, 4 days, 2 mM. The method, then:
To determine the growth inhibitory effects of compounds 2a, SPY, 2c, 2d, ARH77 cells (2×10^4 cells in 100 μl in each well of a 96 well plate) were incubated with each compound or an equivalent amount of DMSO. Four days later, cell growth was determined using the Aqueous One Solution Cell Proliferation Assay (MTS) (Promega) according to the manufacturer's instructions. Each determination was made in triplicate. Relative cell growth was determined by subtracting the absorbance of wells containing medium and lacking cells, and dividing by absorbance values derived from cells treated with an equivalent volume of DMSO.
Reduction of SFZ in the gut to give SPY is thought to be responsible for much of the toxicity associated with therapy. The putative reduction products of the novel SFZ derivatives were associated with increased or decreased toxicity was investigated. ARH77 cells were treated for 4 days with compounds 2a (i.e., putative reduction product of 3a and 3b), 2c (putative reduction product of 3d), and 2d (putative reduction product of 3e and 3f), and SPY (reduction product of SFZ and 3c). Cell growth was determined using an MTS assay. The percent growth inhibition at 2 mM (FIG. 6) was measured. […] Cytotoxicity of 2a and 2c was slightly less than SPY with 27±8% and 24±3% growth inhibition, respectively. 2d was essentially non-toxic in this assay with −6±16% growth inhibition. The ability of compounds 2a, 2c and 2d to interfere with NF-kB activity in LPS treated U937-kBluc cells was also tested.
ARH77 cells were incubated with 2 mM of 2a, 2c, 2d, SPY or DMSO as a solvent control. After 4 days, cell growth was determined using an MTS assay. Percentage growth inhibition for each compound relative to DMSO treated cells was determined. Mean growth inhibition is shown (±SD). Data are derived from two separate experiments, each performed in triplicate.

The subject of a further data set is NF-kB. The data set can be described thus: NF-kB luciferase reporter activity in LPS-stimulated U937-kBluc cells. It is filed as cell-based, human. Conditions: for average luciferase activity, % of the activity in DMSO treated cells: 2 mM, ±SD; for IC50: Homo sapiens, U937-kBluc cells, LPS 0.3 μg/ml, 6 hours, mean of duplicate determinations ±SD, read-out: IC50 for inhibition of LPS-induced NF-kB activity. Here is the method:
U937-kBluc cells were cultured in a 96 well plate (2×10^4 cells in 100 μl in each well) and stimulated with 0.3 μg/ml LPS (lipopolysaccaride; Sigma Aldrich). After 6 hours, cells were collected and luciferase activity determined using the luclite reagent (Perkin Elmer UK, Beaconsfield, UK) and a Packard TopCount (Perkin Elmer), as described by the manufacturer. To determine the effect of SFZ and analogues, various concentrations of each compound or an equivalent amount of DMSO as a solvent control were added 1 hour prior to addition of LPS. Each determination was made in triplicate. A cell line containing an NF-kB reporter construct was used to determine the effects of SFZ analogues on NF-kB activity. Cells were treated with LPS to induce NF-kB activity in the presence or absence of each compound, or DMSO as a solvent control, and luciferase activity analysed as a measure of NF-kB dependent transcription (FIG. 1). […] U937-kBluc cells were treated with LPS to activate NF-kB in the presence of increasing concentrations of SFZ, derivatives (3a-f), or DMSO as a solvent control. For each concentration of compound, the percentage inhibition of luciferase activity relative to cells treated with an equivalent amount of DMSO was calculated. (A) Representative dose response experiment (♦, 3a; ▪, SFZ). Each data point is the mean of triplicate samples (±SEM). (B) Detailed dose response assays were performed for compounds which gave >50% inhibition at 2 mM. The mean IC50 value (±SD) for inhibition of LPS-induced NF-kB activity is derived from 2 independent experiments, each performed in triplicate.
On the technique in general: A reporter such as luciferase makes a cellular process visible.

On to `COc1ccc(CNS(=O)(=O)c2ccc(N)cc2)cc1` [Compound 2a, N-(p-methoxybenzyl)-4-aminobenzenesulfonamide], for which the percent growth inhibition in the data set with ARH77 cells stood at 27±8%.
For the compound `CNS(=O)(=O)c1ccc(N)cc1` [Compound 2c], in the data set on ARH77 cells, the percent growth inhibition was 24±3%.
Take `Nc1ccc(S(=O)(=O)NCc2ccc(C(F)(F)F)cc2)cc1` [Compound 2d]: the percent growth inhibition with ARH77 cells was −6±16%.
Take `COc1ccc(CNS(=O)(=O)c2ccc(/N=N/c3ccc(O)cc3)cc2)cc1` [Compound 3b]: in the data set on NF-kB, the “average luciferase activity, % of the activity in DMSO treated cells” value (“average luciferase activity, %” below) was 87.5±3.3% and the IC50 is > 2000 µM.
On to `Cc1cc(/N=N/c2ccc(S(=O)(=O)Nc3ccccn3)cc2)cc(C(=O)O)c1O` [Compound 3c, 2-hydroxy-3-methyl-5-[4-(pyridin-2-ylsulfamoyl)-phenylazo]benzoic acid], for which the IC50 with NF-kB was found to be 1100 ± 40 µM.
Regarding `CNS(=O)(=O)c1ccc(/N=N/c2ccc(O)c(C(=O)O)c2)cc1` [Compound 3d, 2-hydroxy-5-(4-methylsulfamoyl-phenylazo)-benzoic acid], in the data set with NF-kB, the IC50 amounted to 1240 ± 106 µM.
Regarding `Nc1ccc(O)c(C(=O)O)c1` [Compound 5-ASA, 5-amino salicylic acid, reference compound], in the data set on NF-kB, the “average luciferase activity, %” value was 121±32% and the IC50 is > 2000 µM.
Turning to `Nc1ccc(S(=O)(=O)Nc2ccccn2)cc1` [SPY, sulfapyridine, reference compound], in the data set with NF-kB, the “average luciferase activity, %” value was found to be 151±71% and the IC50 was > 2000 µM.

The values are drawn from patent US20080090788A1, “Chemical Compounds” (priority 2005, published 2008).
